Columns and labels:
[1] = test system: C57BL/6 male mice fed high fat diet; test: Fat vacuoles in hepatocytes, HE-stained liver tissue (Test Example 2); format: in vivo; settings: for Fat vacuole area, Significant difference: 1% level; for Fat vacuole area (Mean ± Standard error): 8 weeks
Procedure: The following test was carried out in the same manner as in Test Example 1 for (1) test animal, (2) diet, and (3) preparation of sample. The diet and the sample water (test substance aqueous solution or distilled water) listed in Table 1 were administered to mice in each group and the animals were fed for 8 weeks. After 8-week test feeding, pentobarbital of 100 mg/kg of body weight was intraperitoneally administered to mice, and the mice were euthanized, and then liver was excised. The liver tissue excised from mice was stained with hematoxylin-eosin (HE) and a specimen observation under a microscope was carried out. Moreover, the results of microscopic observation were analyzed by the following method and a significant difference was evaluated by the t-test. […] This photographing was performed for four mice per group to obtain 16 microscopic images in total per group. At first, stained parts such as cytoplasm and nucleus in hepatocytes were selected by the image analysis. Then fat vacuole parts were selected by color inversion and the number of pixels for the selected fat vacuole parts was considered as a fat vacuole area. In the analysis, Dynamic Cell Count software accompanying fluorescence microscope BZ-9000 was used.

NASH mice = test: Oil Red staining of liver, fat accumulation area % (Test Example 3); format: in vivo; settings: for Fat accumulation area %, Significant difference: Student-t, 5% level
Source text: A solid diet CE-2 (lipid 4.6% by weight, manufactured by CLEA Japan, Inc.) was used as a normal diet. A solid diet, High Fat Diet 32 (lipid 32.0% by weight, sucrose 6.75% by weight, manufactured by CLEA Japan, Inc.), was used as a sucrose-containing high fat diet. As a maltitol-containing high-fat diet, a special diet (lipid 32.0% by weight, maltitol 6.08% by weight; manufactured by CLEA Japan, Inc.) obtained by replacing the total amount (6.75% by weight) of sucrose in a solid diet, High Fat Diet 32, with powdered maltitol (Whole Crystalline Maltitol Ueno 60M (purity of maltitol: 90%), manufactured by Ueno Fine Chemicals Industry Ltd.) was used. Sodium hypochlorite (PURELOX-S, manufactured by OYALOX Co., Ltd.) was added to pure water prepared by Elix-UV pure water producing apparatus, to a final concentration of 0.00009%, so that pure water for use in the test was obtained. An aqueous maltitol solution was prepared by dissolving powdered maltitol (Whole Crystalline Maltitol Ueno 60M (purity of maltitol: 90%), manufactured by Ueno Fine Chemicals Industry Ltd.) in pure water to a concentration of 1.8% (weight/volume). The purity of maltitol in the aqueous maltitol solution was 1.62%. Twenty-one female SPF mice (C57BL/6J, produced by CLEA Japan, Inc.) on day 14 of pregnancy were purchased and acclimation was performed. All animals were allowed to make a natural birth and a born male was used to produce a model. In addition, the weaning was at 4 weeks after birth. Streptozotocin (Sigma-Aldrich Japan K.K.) was adjusted to a concentration of 10 mg/mL with a physiological saline solution (manufactured by Otsuka Pharmaceutical Factory, Inc.) and the solution was subcutaneously administered once to the back of 2-day-old male mice at a dose of 20 μL/mouse (200 μg/mouse). Afterwards, the mother animal took care of the baby until weaning. The weaning was on day 28±2 after birth. After the weaning, a normal diet was supplied ad libitum to animals receiving no streptozotocin (normal mice (group S1 and group 1)), and a sucrose-containing high fat diet was supplied ad libitum to animals receiving streptozotocin (NASH mice (group S2, group 2, group 3, and group 4). A normal diet was supplied ad libitum to normal mice (group 1). With respect to NASH mice, a sucrose-containing high fat diet was supplied ad libitum to the sucrose group (group 2), and a maltitol-containing high fat diet was supplied ad libitum to the maltitol-low dose group (group 3) and the maltitol-high dose group (group 4). An aqueous maltitol solution was supplied ad libitum only to the maltitol-high dose group (group 4) of 5 to 8 weeks of age, and pure water was supplied ad libitum to the groups other than group 4 of 5 to 8 weeks of age. Six male animals per group were assigned to groups S1 and S2, reared up to 5 weeks of age, and then necropsied. Eight male animals per group were assigned to groups 1, 2, 3 and 4, reared up to 8 weeks of age, and then necropsied. At scheduled necropsy of the animals of 5 or 8 weeks of age, all individuals were anesthetized with diethyl ether (manufactured by Sigma-Aldrich Japan K.K.) and a needle through which heparin sodium (Novo Heparin Injection 1000, manufactured by Mochida Pharmaceutical Co., Ltd.) had been passed was punctured to the heart to aspirate the whole blood, leading to euthanasia, followed by harvest of the organ. With respect to animals of 5 or 8 weeks of age at scheduled necropsy, the left outer lobe of the liver was immersed in a neutral formalin solution (manufactured by Wako Pure Chemical Industries, Ltd.) for fixation at room temperature for 24 hours, subjected to sucrose substitution, embedded in a tray for cryosection (CRYO DISH manufactured by Shoei Works Co., Ltd.) filled with O.C.T. compound (manufactured by Sakura Finetek Japan Co., Ltd.), immediately frozen with liquid nitrogen, and preserved at −80° C. for oil red staining. […]

[2] = Group 4: high fat diet + 2.25% aqueous maltitol solution
[3] = Group 5: high fat diet + 4.5% aqueous maltitol solution
[4] = Group 3: high fat diet + 2.5% aqueous sucrose solution

SMILES | Fat vacuole area, Significant difference ([1]; Group 4 (2.25% maltitol solution) relative to group 2 (high fat diet + distilled water)) | Fat vacuoles in microscopic observation [1, 2] | Fat vacuole area (Mean ± Standard error) [1, 2] [pixel] | Fat vacuole area, Significant difference ([1]; Group 5 (4.5% maltitol solution) relative to group 2 (high fat diet + distilled water)) | Fat vacuoles in microscopic observation [1, 3] | Fat vacuole area (Mean ± Standard error) [1, 3] [pixel] | Fat accumulation area %, Significant difference (NASH mice; Group 3 (low-dose maltitol) at 8 weeks vs group S2 at 5 weeks of age) | Fat accumulation area % (Oil Red staining), mean ± standard deviation (NASH mice; Group 3, low-dose maltitol: HFD32-M (maltitol 6.08%) + pure water from 5 to 8 weeks of age) [%] | Fat accumulation area %, Significant difference (NASH mice; Group 4 (high-dose maltitol) at 8 weeks vs group S2 at 5 weeks of age) | Fat accumulation area % (Oil Red staining), mean ± standard deviation (NASH mice; Group 4, high-dose maltitol: HFD32-M (maltitol 6.08%) + aqueous maltitol solution 1.62% from 5 to 8 weeks of age) [%] | Fat vacuole area, Significant difference ([1]; Group 3 (2.5% sucrose solution) relative to group 2 (high fat diet + distilled water)) | Fat vacuoles in microscopic observation [1, 4] | Fat vacuole area (Mean ± Standard error) [1, 4] [pixel] | Fat accumulation area %, Significant difference (NASH mice; Group 2 (sucrose) at 8 weeks vs group S2 at 5 weeks of age) | Fat accumulation area % (Oil Red staining), mean ± standard deviation (NASH mice; Group 2, sucrose group: HFD32 (sucrose 6.75%) + pure water, eight weeks of age) [%]
OC[C@@H](O)[C@@H](O[C@H]1O[C@H](CO)[C@@H](O)[C@H](O)[C@H]1O)[C@H](O)[C@@H](O)CO [maltitol] | significantly smaller and Yes | few fat vacuoles were observed | 256145 ± 29037 | significantly smaller and Yes | few fat vacuoles were observed | 264982 ± 16387 | significantly low and Yes | 32.7 ± 7.6 | significantly low and Yes | 28.6 ± 5.5 |  |  |  |  | 
OC[C@H]1O[C@@](CO)(O[C@H]2O[C@H](CO)[C@@H](O)[C@H](O)[C@H]2O)[C@@H](O)[C@@H]1O [sucrose, reference compound] |  |  |  |  |  |  |  |  |  |  | No | reduction of the fat vacuoles is limited | 306930 ± 28549 | a significant difference was not observed and No | 34.7 ± 8.4

— US9155752B2, “Liver function-improving agent” (UENO FINE CHEMICALS INDUSTRY, LTD., priority 2012, dated 2015)
